Measurements published in PubChem BioAssay (NCI).
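Assay format: 96-well plates, 48-hour exposure. At the GI50, growth is halved. TGI: total growth inhibition.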

What was measured:
Test in all cases: NCI-60 cell line screen, 48 h
[1] = test system: 786-0 renal
[2] = test system: A498 renal
[3] = test system: A549 NSCLC
[4] = test system: ACHN renal
[5] = test system: BT-549 breast
[6] = test system: CAKI-1 renal
[7] = test system: CCRF-CEM leukemia
[8] = test system: COLO 205 colon
[9] = test system: DU-145 prostate
[10] = test system: EKVX NSCLC
[11] = test system: HCC-2998 colon
[12] = test system: HCT-116 colon
[13] = test system: HCT-15 colon
[14] = test system: HL-60(TB) leukemia
[15] = test system: HOP-62 NSCLC
[16] = test system: HOP-92 NSCLC
[17] = test system: HS 578T breast
[18] = test system: HT29 colon
[19] = test system: IGROV1 ovarian
[20] = test system: K-562 leukemia
[21] = test system: KM12 colon
[22] = test system: LOX IMVI melanoma
[23] = test system: M14 melanoma
[24] = test system: MALME-3M melanoma
[25] = test system: MCF7 breast
[26] = test system: MDA-MB-231 breast
[27] = test system: MDA-MB-435
[28] = test system: MOLT-4 leukemia
[29] = test system: NCI-H226 lung
[30] = test system: NCI-H23 lung
[31] = test system: NCI-H460 lung
[32] = test system: NCI-H522 lung
[33] = test system: NCI/ADR-RES ovarian
[34] = test system: OVCAR-3 ovarian
[35] = test system: OVCAR-4 ovarian
[36] = test system: OVCAR-5 ovarian
[37] = test system: OVCAR-8 ovarian
[38] = test system: PC-3 prostate
[39] = test system: RPMI-8226 leukemia
[40] = test system: RXF 393 renal
[41] = test system: SF-268 CNS
[42] = test system: SF-295 CNS
[43] = test system: SF-539 CNS
[44] = test system: SK-MEL-2 melanoma
[45] = test system: SK-MEL-28 melanoma
[46] = test system: SK-MEL-5 melanoma
[47] = test system: SK-OV-3 ovarian
[48] = test system: SN12C renal
[49] = test system: SNB-19 CNS
[50] = test system: SNB-75 CNS
[51] = test system: SR leukemia
[52] = test system: SW-620 colon
[53] = test system: T-47D breast
[54] = test system: TK-10 renal
[55] = test system: U251 CNS
[56] = test system: UACC-257 melanoma
[57] = test system: UACC-62 melanoma
[58] = test system: UO-31 renal

## COc1ccc(C(=O)c2nc3ccccc3n2CC(=O)c2ccc(Cl)cc2)cc1
[1]
  GI50: 3.88 µM
  TGI: > 100 µM
[2]
  GI50: 4.07 µM
  TGI: 39.4 µM
[3]
  GI50: 17.5 µM
  TGI: > 100 µM
[4]
  GI50: 6.4 µM
  TGI: > 100 µM
[5]
  GI50: 4.11 µM
  TGI: > 100 µM
[6]
  GI50: 53.6 µM
  TGI: > 100 µM
[7]
  GI50: 2.24 µM
  TGI: > 26.4 µM
[8]
  GI50: 11.3 µM
  TGI: > 83.7 µM
[9]
  GI50: 4.51 µM
  TGI: > 100 µM
[10]
  GI50: 11.6 µM
  TGI: > 100 µM
[11]
  GI50: 3.94 µM
  TGI: > 100 µM
[12]
  GI50: 3.15 µM
  TGI: > 100 µM
[13]
  GI50: 2 µM
  TGI: > 100 µM
[14]
  GI50: 0.958 µM
  TGI: 5.06 µM
[15]
  GI50: 4.78 µM
  TGI: > 100 µM
[16]
  GI50: > 100 µM
  TGI: > 100 µM
[17]
  GI50: 2.49 µM
  TGI: 12.4 µM
[18]
  GI50: 2.82 µM
  TGI: > 100 µM
[19]
  GI50: 6.09 µM
  TGI: > 100 µM
[20]
  GI50: 0.585 µM
  TGI: > 100 µM
[21]
  GI50: 1.59 µM
  TGI: > 100 µM
[22]
  GI50: 6.2 µM
  TGI: > 100 µM
[23]
  GI50: 2.27 µM
  TGI: > 100 µM
[24]
  GI50: 1.92 µM
  TGI: > 100 µM
[25]
  GI50: 2.1 µM
  TGI: > 100 µM
[26]
  GI50: 15.6 µM
  TGI: > 100 µM
[27]
  GI50: 0.336 µM
  TGI: 1.79 µM
[28]
  GI50: 2.09 µM
  TGI: > 100 µM
[29]
  GI50: > 28.4 µM
  TGI: > 100 µM
[30]
  GI50: 4.61 µM
  TGI: > 100 µM
[31]
  GI50: 7.34 µM
  TGI: > 100 µM
[32]
  GI50: 3.95 µM
  TGI: > 100 µM
[33]
  GI50: 1.2 µM
  TGI: > 21.3 µM
[34]
  GI50: 2.55 µM
  TGI: > 20.4 µM
[35]
  GI50: 5.02 µM
  TGI: > 100 µM
[36]
  GI50: > 82.3 µM
  TGI: > 100 µM
[37]
  GI50: 6.3 µM
  TGI: > 100 µM
[38]
  GI50: 3.09 µM
  TGI: > 100 µM
[39]
  GI50: 1.71 µM
  TGI: > 23.9 µM
[40]
  GI50: 2.6 µM
  TGI: > 24.6 µM
[41]
  GI50: 5.98 µM
  TGI: > 100 µM
[42]
  GI50: 2.5 µM
  TGI: > 100 µM
[43]
  GI50: 2.85 µM
  TGI: > 30.5 µM
[44]
  GI50: 12.6 µM
  TGI: > 100 µM
[45]
  GI50: 3.02 µM
  TGI: > 100 µM
[46]
  GI50: 2.55 µM
  TGI: 12.9 µM
[47]
  GI50: 10.4 µM
  TGI: > 100 µM
[48]
  GI50: 9.72 µM
  TGI: > 100 µM
[49]
  GI50: 4.32 µM
  TGI: > 100 µM
[50]
  GI50: 2.75 µM
  TGI: > 100 µM
[51]
  GI50: 0.569 µM
[52]
  GI50: 1.29 µM
  TGI: > 100 µM
[53]
  GI50: 3.65 µM
  TGI: > 100 µM
[54]
  GI50: 4.02 µM
  TGI: > 100 µM
[55]
  GI50: 3.41 µM
  TGI: > 100 µM
[56]
  GI50: > 23.6 µM
  TGI: > 100 µM
[57]
  GI50: 4.93 µM
  TGI: > 100 µM
[58]
  GI50: 7.04 µM
  TGI: > 100 µM
